Data: patent publication US5770563A, “Heparin- and sulfatide binding peptides from the type I repeats of human thrombospondin and conjugates thereof” (The United States of America as represented by the …, priority 1995, dated 1998)
Square brackets hold non-standard residues; d marks the D form. Ends that are not written are not given here. Peptide text beside a SMILES is read from it.

Legend:
Solubility = format: physicochemical
[1] = test system: thrombospondin binding to heparin; experiment: Inhibition of 125I-thrombospondin binding to immobilized heparin-BSA; parameters: species or system human
Procedure, shortened: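 Solid-phase binding: heparin-BSA (0.2 μg/well) adsorbed 2 h at 37° in Dulbecco's PBS, blocked with tris-BSA. Peptides in 50 mM tris pH 7.8, NaCl, 1 mM CaCl2, 0.025% NaN3, 1% BSA mixed with 125I-thrombospondin (added at 0.2 μg/ml), 3 h at 4°; after saline washes, bound radioactivity counted.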

[2] = test system: bovine corneal endothelial cells; format: cell-based
Method: Corneal bovine endothelial cells (BCE cells) were used at passages 2 through 8 (Munjal et al., 1990). BCE cell cultures were maintained in DMEM (low glucose), containing 10% FCS, 4 mM glutamine, 2.5 μg/ml amphotericin B, and 500 U/ml each of penicillin G potassium and streptomycin sulfate (all media components were from Biofluids Inc., Rockville, Md.). BCE cells were grown at 34° in 5% CO2. The media were changed every 2-3 days.
(§1) Endothelial cell proliferation was measured using the CELL TITER 96™ assay (Promega, Madison, Wis.). 5×10^3 cells were plated into each well of a 96-well culture plate in 0.5 or 5% FCS-containing medium together with the indicated concentrations of growth effectors. After 72 h, 15 μl of dye solution was added to each well, and the plates were incubated for an additional 4 h. Solubilization solution was added, and absorbance at 570 nm was determined after 24 h as described by the manufacturer.

AIDS-KS cells [3] = experiment: AIDS-KS cell proliferation; format: cell-based, human
Method: AIDS-KS cell strains were cultured as previously described (Nakamura, S. et al. "Kaposi's Sarcoma Cells: Long-Term Culture with Growth Factor From Retrovirus-Infected CD4+T Cells", Science, (1988) 242:426; and Salahuddin, S. Z. et al. "Angiogenic Properties of kaposi's Sarcoma-Derived Cells After Long-Term Culture In Vitro", Science (1988) 242:430). TSP was purified from thrombin-stimulated human platelets as described. TSP peptides and peptide conjugates were synthesized corresponding to sequences of human TSP as described.
For the cell proliferation assays 1×10^3 cells/well were seeded in triplicate in 24 well flat bottom plates (Falcon, Franklin Lakes, N.J.) that contained the required dilutions of TSP, TSP peptide-FICOLL conjugates, and growth factors: 1) Oncostatin M (OSM) (PreProtech) at 25 ng/ml, or 2) activated lymphocyte conditioned medium (AL-CM) at 20%. After 7 days, the cells were trypsinized and counted using a Coulter Zm Cell Counter (Coulter Corporation). The values are triplicate determinations and the bars indicate standard deviations, n=3.

AIDS-KS cells [4] = experiment: AIDS-KS cell chemotaxis, modified Boyden chamber; format: cell-based, human
Method: Directed migration (chemotaxis) and general migration (chemokinesis) of AIDS-KS cells in culture was measured by the modified Boyden chamber assay using fibronectin coated […] Nucleopore filters as previously described. In brief, the AIDS-KS cells, were trypsinized then resuspended in RPMI 1640 containing […] (GIBCO-BRL) and 20% activated lymphocyte conditioned medium. The trypsinized cells were allowed to recover in suspension for 2 hours, then the cells were recovered by centrifugation and resuspended in RPMI 1640 containing 0.1% BS at 5×10^5 cells/ml prior to adding 100 μl to the upper wells in the chemotaxis chamber. Migration to BSA (0.1%) and OSM was performed in the presence of the indicated concentrations of TSP, and TSP peptide-FICOLL conjugates. After 3 hours incubation at 37° C. filters were stained with Diff Quick (Merz-Dade, Dudingen, Switzerland), and the migrated cells in ten high-power fields were counted. The values are triplicate determinations and the bars indicate standard deviations, n=3.

[5] = test system: bovine aortic endothelial cells; experiment: Proliferation of bovine aortic endothelial cells; format: cell-based; conditions: free peptide, 40 μM
Method: as §1
FICOLL conjugates of peptide 353 (SEQ ID NO:28) (GGWSHWSPWSSC), 354 (SEQ ID NO:29) (CGGWSHWSPWSS), 224 364 g (SEQ ID NO:30) and 387 (SEQ ID NO:30) (three syntheses of KRFKQDGGWSHWSPWSSC), or free FICOLL were tested at the indicated concentrations as inhibitors of proliferation of bovine aortic endothelial cells in DMEM medium containing 0.5% (FIG. 24A) or 5% (FIG. 24B) fetal calf serum. […] Therefore, the conjugates are general inhibitors of both large and small vessel endothelial cell proliferation. […]
Proliferation of bovine aortic endothelial cells was also determined for cells grown in the presence of the indicated concentrations of peptide 246 (KRFKQDGGWSHWSPWSS) (SEQ ID NO:19) or peptide 416 (retro-inverso) in RPMI-HITES (reg medium) or corresponding conditioned medium from MDA 435 breast carcinoma cells. […]

[6] = test system: MDA MB435 breast carcinoma cells; experiment: MDA MB435 human breast carcinoma cell proliferation; format: cell-based; conditions: free peptide
Method: Human breast carcinoma cells MDA MB435 (American Type Culture Collection) were grown in RPMI 1640 medium containing 10% fetal calf serum. Proliferation was determined as described in FIG. 18 and 44A, B and C.
Human breast carcinoma cells MDA MB435 (American Type Culture Collection) were grown in RPMI 1640 medium containing 10% fetal calf serum. Proliferation was determined in the presence of 0.5% fetal calf serum and bFGF as described in FIG. 19.

MDA MB435 tumor = experiment: MDA MB435 orthotopic tumor growth in nude mice; format: in vivo, mouse
Method: (§2) Tumor cells were allowed to implant for approximately one to three weeks prior to administering the peptide analog or a polysucrose conjugate. […] The inhibitory effect persisted beyond the treatment period, although the growth of the tumors eventually resumed.
The presented experiment consisted of two groups of animals. The objective was to test a peptide conjugate for effects on breast carcinoma growth. The treated animals were injected with MDA435 cells alone on day one and then injected intravenously with drugs from day 10 through approximately day 30. Tumor growth and frequency of metastasis were determined in both groups.
NIH Nu/Nu mice, approximately eight weeks of age are injected with 10^5 MDA MB435 cells by the mammary fat pad route. Mice were anesthetized with 150-200 μl i.p. of a 1:80 dilution in PBS of a solution containing 25 g. tribromoethanol in 12.5 ml tertiary amyl alcohol. The mammary fat pad was cleaned with ethanol and a 10 mm incision was made directly above the site of injection. Mammary fat pad #4 could be observed beneath the skin after the incision was made. Using a 0.1 ml Hamilton syringe and 27 gauge 1/2" needle, 10 μl of cell suspension, 1×10^5 cells in HBSS, are injected into the fat pad. The incision is closed using 1-2 Autoclips ([…], Clay Adams). Autoclips are removed 7 days post-injection and scarring is minimal.
Six animals were injected for each condition, per experiment. Animals were earpunched after injection for subsequent identification. Beginning at day 10 and continuing every day until approximately day 30, the experimental animals were injected i.v. (tail vein) with 0.1 ml of the FICOLL conjugate. Primary tumor size was determined twice weekly by length×width×height measurement, and the animals are observed daily for general health. When the primary tumor of any animal exceeded 20 mm in any dimension, all of the animals were sacrificed. The presence of metastases was determined by gross autopsy and examination of H & E stained sections of any suspicious organ and step sections of the lungs and draining lymph nodes. The primary tumors were removed, stripped free of other tissues, and weighed. At any time during the experiment, animals suspected of being in distress were sacrificed and examined as above.

Toxicity in nude mice = format: in vivo, mouse; conditions: free peptide, up to 10 mg/kg
Excerpt: as §2
Based on published studies of related peptide conjugates (Braatz J. A., Yashuda Y., Olden K., Yamada K. M., Heifetz A. H. (1993): Functional peptide-polyurethane conjugates with extended circulatory half lives. Bioconjugate Chem 4:262-267), the conjugates are predicted have circulating half lives on the order of 10 hours. Free peptides usually have circulating half lives of less than 10 minutes, based on published results. The short half lives were due to clearance or stability of the peptides in plasma. Use of nonhydrolyzable amino acid analogs or capping modifications of the peptides decreases sensitivity to degradation.

AIDS-KS lesion = experiment: Kaposi's sarcoma angiogenic lesion formation in nude mice; format: in vivo; conditions: intravenous, nude mouse
Method: For determination of In vivo Angiogenesis, 2×10^6 AIDS-KS cells suspended in phosphate buffered saline without calcium and magnesium (PBS w/o), passage 6-8, were transplanted subcutaneously on day 0 of the flanks of male Balb/c nu/nu athymic mice. The animals were injected intravenously with increasing dilutions of TSP peptide-FICOLL conjugates or the equivalent concentrations of FICOLL mixed in PBS w/o as a control from days 1-5. On day 6 the angiogenic lesions were observed, measured, fixed in 10% formalin, and stained with hematoxylin-eosin.

[7] = polysucrose/FICOLL conjugate, intravenous

CC(=O)N[C@@H](CCCCN)C(=O)N[C@@H](CCCNC(=N)N)C(=O)N[C@@H](C)C(=O)N[C@@H](CCCCN)C(=O)N[C@@H](C)C(=O)N[C@@H](C)C(=O)NCC(=O)NCC(=O)N[C@@H](Cc1c[nH]c2ccccc12)C(=O)N[C@@H](CO)C(=O)N[C@@H](Cc1c[nH]cn1)C(=O)N[C@@H](Cc1c[nH]c2ccccc12)C(=O)N[C@@H](C)C(=O)N[C@@H](CO)C(=O)N[C@@H](CS)C(N)=O [acKRAKAAGGWSHWASCam] (Ac-KRAKAAGGWSHWASC-NH2)
solubility characteristics (Solubility): good activity and solubility characteristics | inhibition of thrombospondin binding to heparin, in words ([1]; free peptide): good activity

N=C(N)NCCC[C@H](NC(=O)[C@@H](N)CCCCN)C(=O)N[C@@H](Cc1ccccc1)C(=O)N[C@@H](CCCCN)C(=O)N[C@@H](CCC(N)=O)C(=O)N[C@@H](CC(=O)O)C(=O)NCC(=O)NCC(=O)N[C@@H](Cc1c[nH]c2ccccc12)C(=O)N[C@@H](CO)C(=O)N[C@@H](Cc1c[nH]cn1)C(=O)N[C@@H](Cc1c[nH]c2ccccc12)C(=O)N[C@@H](CO)C(=O)N1CCC[C@H]1C(=O)N[C@@H](Cc1c[nH]c2ccccc12)C(=O)N[C@@H](CO)C(=O)N[C@@H](CO)C(=O)O [Peptide 246, KRFKQDGGWSHWSPWSS] (H-KRFKQDGGWSHWSPWSS-OH)
IC50 [2]: 40000 nM

TSP: thrombospondin purified from thrombin-stimulated human platelets
inhibition of AIDS-KS cell proliferation, in words (AIDS-KS cells [3]): concentration dependent decrease in cell number | stimulation of AIDS-KS cell motility (AIDS-KS cells [4]; added in the lower well): dose-dependent stimulation of AIDS-KS cell motility | IC50 (AIDS-KS cells [4]; added with OSM, read-out: IC50 inhibition of OSM stimulated migration): < 110 nM

CC(=O)N[C@H](CS)C(=O)N[C@H](CO)C(=O)N[C@H](CO)C(=O)N[C@H](Cc1c[nH]c2ccccc12)C(=O)N1CCC[C@@H]1C(=O)N[C@H](CO)C(=O)N[C@H](Cc1c[nH]c2ccccc12)C(=O)N[C@H](Cc1c[nH]cn1)C(=O)N[C@H](CO)C(=O)N[C@H](Cc1c[nH]c2ccccc12)C(=O)NCC(=O)NCC(=O)N[C@H](CC(=O)O)C(=O)N[C@H](CCC(N)=O)C(=O)N[C@H](CCCCN)C(=O)N[C@H](Cc1ccccc1)C(=O)N[C@H](CCCNC(=N)N)C(=O)N[C@H](CCCCN)C(N)=O [Peptide 416, ri-amKRFKQDGGWSHWSPWSSCac] (Ac-[dC][dS][dS][dW][dP][dS][dW][dH][dS][dW]GG[dD][dQ][dK][dF][dR][dK]-NH2)
inhibition of aortic endothelial cell proliferation, in words [5]: significantly inhibit proliferation | inhibition of MDA MB435 proliferation, in words [6]: substantial inhibition of MDA cell proliferation | inhibition of thrombospondin binding to heparin, in words ([1]; FICOLL conjugate): active | inhibition of thrombospondin binding to heparin, in words ([1]; free peptide): retains heparin-binding activity | inhibition of thrombospondin binding to heparin, in words ([1]; free peptide, listed as all D-acCSSWPSWHSWGGDQKFRKam): retained full activity | activity relative to the native sequence ([1]; free retro-inverso peptide): approximately three-fold less | IC50 ([1]; retro-inverso peptides, free, read-out: IC50 Inhibitory Activity, Free Peptide): 400 nM | tumor growth, dose response (MDA MB435 tumor; 0.2 to 6 mg/kg, treatment with 6 mg/kg): maximal inhibition of tumor growth | tumor growth (MDA MB435 tumor; free peptide, daily intravenous, 2 mg/kg): significantly inhibited tumor growth | tumor growth (MDA MB435 tumor; [7]): No significant inhibition of tumor growth | toxicity (Toxicity in nude mice): without overt toxicity

364f: KRFKQDGGWSHWSPWSSC conjugated to FICOLL, several preparations (also: conjugated to FICOLL) [Peptide 364f]
AIDS-KS lesion formation (AIDS-KS lesion): strongly inhibited AIDS-KS lesion formation | tumor growth (MDA MB435 tumor; [7]): delays tumor growth
